The text below walks through data of ChEMBL document CHEMBL1914284, “Pyrazinamide, but not pyrazinoic acid, is a competitive inhibitor of NADPH binding to Mycobacterium tuberculosis fatty acid synthase I” (Bioorg Med Chem Lett, 2011).

The subject of test [1] is Mycobacterium tuberculosis. Nature of the test: Binding affinity to Mycobacterium tuberculosis fatty acid synthase 1 at 350 uM by STD NMR spectrophotometric assay.
The subject of test [2] is Mycobacterium tuberculosis. Nature of the test: Binding affinity to Mycobacterium tuberculosis fatty acid synthase 1 at 500 uM by STD NMR spectrophotometric assay.
For test [3], the system named is Mycobacterium tuberculosis. The test can be described thus: Binding affinity to Mycobacterium tuberculosis fatty acid synthase 1 at 8 mM by STD NMR spectrophotometric assay.
Test [4] can be described thus: Binding affinity to Mycobacterium tuberculosis fatty acid synthase 1 by STD NMR spectrophotometric analysis in presence of increasing concentration of NADPH.
A short description of test [5]: Competitive inhibition of Mycobacterium tuberculosis fatty acid synthase 1 assessed as inhibition of NADPH oxidation by STD NMR spectrophotometric analysis.

In general, Kd refers to the concentration at which binding is half-saturated. For orientation: Ki means the equilibrium dissociation constant of an inhibitor or competing ligand from its target.

The source made the active and inactive calls. The rule behind the calls is not given here.

Consider `C/C=C/C/C=C/CCC(=O)[C@H]1O[C@H]1C(N)=O`, for which, in test [1], the outcome was Active.

Take `CC[C@@H](CO)NCCN[C@@H](CC)CO`: the result in test [2] was inactive.

Regarding `O=C(O)c1cnccn1`, the result in test [3] was Active.

As for `NC(=O)c1cnccn1` [PYRAZINAMIDE], in test [4], the equilibrium dissociation constant (Kd) was found to be 70 µM. Moreover, in test [3], the result was Active. Also, the Ki in test [5] was determined as 41 µM.
